# Test results reported in US20190008440A1, “Method and device to investigate or treat painful neuropathy” (priority 2017, published 2019).
# Legend:
# A delta nociceptors = assay: Laser pin prick pain threshold (A delta fibers) of healthy volunteer after topical capsaicin; type: in vivo, human; details: beam 1 mm, 20 minutes after topical capsaicin on skin
# Excerpt: The following is a description a typical test procedure utilizing the present invention with the application of protocol Example 1 for healthy volunteers and pain patients:
# Step 1: Preparing volunteer for test. The volunteers were asked to respond to stimuli after each stimulus was applied, and describing the level and type of evoked sensation, location of sensation, how long the sensation lasts, whether the sensation was single (monomodal) or if more than one sensation were evoked by stimulation.
# Step 2: The level of power of laser was adjusted to skin type of volunteer and irradiated spot was selected as close as possible to A-delta receptors.
# Collimated beam with diameter 2 mm, within range of power 5.0-10.0 W and pulse duration 100 ms is applied to an investigated area of skin to determine the individual sensitivity and to map the location of A delta nociceptors. The power is increased with step 0.5 W until the first sensation is evoked. After that, the pulse power is fixed and the position of the irradiated spot is scanned (tuned) within an XY frame 5 mm×5 mm to find the location of the nociceptor and pulse power is applied for each new location with spatial steps of around 0.5 mm for fingertips.
# The inter-stimulus time was at least 20 sec. The first appeared sensation was rated by the volunteer as barely pricking pain without any other sensations of warmth or hot pain.
# After the location of receptors were determined, the summation curve—Power of Pain Threshold vs. Pulse Duration were measured by the following procedure: • 1) Collimated beam was adjusted to 1 mm, • 2) Duration of pulse set up to 50 ms and pulse power was increased from 2 W until volunteer reported about first appeared sensation. • 3) Afterwards, power was increased until volunteer reported that sensation became clearly painful, but decreasing of power of stimulus on 5-10% leads to the disappearance of pain. • 4) Afterward, the power threshold was measured for 50 ms pulse duration was increased by step 50 ms and procedure measurement of threshold was repeated. The increment of power was 0.1 W.
# The healthy volunteer was tested with pulse durations from 50 ms to 300 ms and beam size of 1 mm. The volunteer reported what around 200-300 ms, they felt on the same level of power firstly warmth and after that pricking pain but for pulses within range 50-150 ms, only single (monomodal) pricking pain was discerned. The sensations were sharp and disappeared in a few seconds after stimulation. The next stimulus was applied not earlier than 20 sec or after the disappearance of painful sensation of previous stimulus.
# The thresholds of pin prick pain of healthy volunteers were measured in 20 minutes after topical analgesic (capsaicin) was applied on skin. The Steps 2, 3 and 4 were repeated.
# C fibers = assay: Laser threshold pulse duration for hot pain (stimulation of C fibers), hairy skin of left hand; type: in vivo, human
# Method: Subjects: A chronic pain patient with hypersensitivity and a healthy volunteer were tested. Both subjects gave informed consent and the experiments were approved by the local institutional review board. The hairy skin of left hand was used for both volunteers. In preparing the subjects testing, they were asked to respond orally immediately after they perceived any threshold sensation and/or to interrupt lasing pulse by pressing STOP button. They then described the level and type of evoked sensation, location of sensation, how long the sensation lasted, whether the sensation was single (monomodal) sensation or if there were more than one evoked sensations by a single stimulation. Afterwards, the threshold pulse was applied 3 times to different areas with interval of {tilde over ( )}3 min or after the previous sensation (pain) had disappeared. The appearance redness was an indication of skin irritation.
# Step 1: To test duration of pulse that evoked threshold warmth sensation only, the output power was set to 1.5 W, beam size adjusted to 5 mm. The pulse was applied to the skin. When the volunteer reported warmth (pain) sensation the lasing was stopped. […]
# The laser radiation was stopped by volunteer. […] When this button was pushed the command “stop lasing” was activated, duration of applied pulse was measured and it was indicated on the screen of PC connected to the device by RS232 interface. […]
# [1] = cited from earlier work
# A delta and C fibers = assay: Skin biopsies processed with PGP 9.5 biomarker, integral fiber density of A delta and C fibers in epidermis and dermis; type: in vivo, human; details: biopsies 7 days after treatment with 8% capsaicin patch
# Excerpt: In 7 days after treatment additional biopsies from laser and capsaicin treated areas together with control were taken and “blindly” processed with PGP 9.5 biomarker to determine the integral fiber density of the A delta and C fibers in epidermis and dermis.
# C fiber mediated pain = details: in vivo; cited from earlier work
compound,measurement,setting,value
COc1cc(CNC(=O)CCCC/C=C/C(C)C)ccc1O [capsaicin],Power of Pain Thresholds of Healthy Volunteer (Capsaicin),"A delta nociceptors; pulse duration 50 ms, untreated healthy volunteer 9.5 W",14.8 W
same,Power of Pain Thresholds of Healthy Volunteer (Capsaicin),"A delta nociceptors; pulse duration 100 ms, untreated healthy volunteer 4.5 W",7.0 W
same,Power of Pain Thresholds of Healthy Volunteer (Capsaicin),"A delta nociceptors; pulse duration 150 ms, untreated healthy volunteer 3.2 W",5 W
same,Power of Pain Thresholds of Healthy Volunteer (Capsaicin),"A delta nociceptors; pulse duration 200 ms, untreated healthy volunteer 2.8 W",4.3 W
same,Power of Pain Thresholds of Healthy Volunteer (Capsaicin),"A delta nociceptors; pulse duration 300 ms, untreated healthy volunteer 2.5 W",3.9 W
same,"threshold pulse duration, hot pain","C fibers; power 1.5 W, beam 5 mm, healthy volunteer affected topical capsaicin, stop button, untreated healthy volunteer 1300 ms",800 ms
same,effect on thresholds of warmth sensation and hot/burning pain,C fibers; topical capsaicin,decreases the thresholds of warmth sensation and hot/burning pain
same,residual time,[1]; capsaicin solution used to stimulate neurogenic flare,over 48 hours
same,duration of capsaicin induced flare,[1]; in vivo,over several hours
same,residual time of capsaicin in the skin,[1]; patch application,48 h
same,fiber density below control,A delta and C fibers,10 to 20%
CN1CC[C@]23c4c5ccc(O)c4O[C@H]2[C@@H](O)C=C[C@H]3[C@H]1C5 [morphine],inhibition of C fiber mediated pain vs A delta fiber mediated pain,C fiber mediated pain,much more effective in inhibiting C fiber mediated pain than A delta fiber mediated pain
